The results in this text go back to patent EP0311383B1, “Monoclonal antibody to methamphetamine, preparation of the same, assay method and assay kit of methamphetamine” (UBE INDUSTRIES, LTD., priority 1987, dated 1989).

Type in all cases: binding, mouse
The subject of test [1] is monoclonal antibody MA-13 (FERM BP-1495). Briefly: Assay test II: competitive ELISA on immobilised MA-BSA, reactivities of the monoclonal antibody with various compounds. As to the method: (§1) First, in each analytic well of a 96-well U-bottomed ELISA plate was apportioned each 50 µl of an MA-BSA solution (2 µg/ml, dissolved in 0.05 M carbonate buffer of pH 9.8) which is the antigen for analysis prepared in Example 1, and the mixture was left to stand overnight at 4 °C (by such treatment, MA-BSA was adsorbed onto the surface of each analytic well).
(§2) Subsequently, after each analytic well was washed with a washing solution (PBS containing 0.05 % of Tween 20), each apportioned in each analytic well, left to stand at room temperature for 2 hours, these respective analytic wells were washed with the washing solution, and the culture supernatant in each culture well of the above culture plate was apportioned each in 50 µl into these respective analytic wells and left to stand at room temperature for 2 hours (for the negative control, a supernatant obtained by culturing similarly a mixture of mouse spleen lymphocytes and mouse myeloma cells before fusion was employed; on the other hand, for the positive control, the serum of mouse used for cell fusion in the present invention diluted to 100-fold with the washing liquor was used).
(§3) Next, each analytic well in the ELISA plate was washed, and each 50 µl of an alkaline phosphatase labeled antibody solution to mouse immunoglobulin was apportioned into each analytic well and left to stand at room temperature for 1 hour. And, after each analytic well in the ELISA plate was washed, each 100 µl of a sodium p-nitrophenylphosphate 6H₂O solution (1 mg/ml) was apportioned into each analytic well and, after the reaction at room temperature for 30 minutes, absorbance of each well at 405 nm was assayed by means of a spectrophotometer for microplate.
(§4) In order to determine the reaction specificities of the monoclonal antibodies such as MA-7, MA-13 and MA-15, reactivities with compounds different from MA such as AP (amphetamine), EP (ephedrin), ME (methylephedrin), MPA (methoxyphenamine), PT (phentermine), norEp (norephedrin), DBED (N,N′-dibenzylethylenediamine), OH-MA (p-hydroxymethamphetamine), OH-AP (p-hydroxyamphetamine), OH-EP (p-hydr oxyephedrin), OH-norEP (p-hydroxynorephedrin), Mes (mescaline), etc. were investigated according to the same ELISA method as described above in the step (c) (however, the reagent used for assay was made two-fold in amount, and a mixed solution of 50 µl of a solution of a compound diluted at multiple stages with the washing liquor and 50 µl of a monoclonal antibody solution was used in place of the hybridoma culture supernatant).
(§5) The reactivities of these antibodies with MA, AP, EP, ME, MPA, PT, norEp, DBED, OH-MA, OH-AP, OH-EP, OH-norEP and Mes are shown in Table 1 in terms of the reactive ratios relative to MA.
In general terms: ELISA stands for enzyme-linked immunosorbent assay.

In test [2] the test system is monoclonal antibody MA-15 (FERM BP-1496). The description is as above. As to the method: as §1, §2, §3, §4, §5
The subject of test [3] is monoclonal antibody MA-7 (FERM BP-1494). The description is as above. As to the method:
as §1, §2, §3, §4, §5

Test [4] concerns "antibody carrier" (monoclonal antibody to MA on polystyrene latex). The test is described as follows: Latex agglutination assay with MA carrier and antibody carrier, time until agglutination is seen with naked eyes. The note with it: same as at 0 ppm. As to the method:
Each solution was quickly stirred with a stirring stick to carry out the reaction while moving the reaction plate, forward and backward, left and right, at a constant temperature (e.g. room temperature) for a certain period of time (e.g. 1 to 2 minutes), and the agglutination of each set formed by the reaction between the "antibody carrier" and the "MA carrier" is observed. At this time, by observing with comparison between the agglutination in the case of the set by use of the "standard MA solution" and the agglutination in the case of the set by use of the sample to be assayed, the MA content in the sample to be assayed can be known.
A mixture of 100 µl of MA-BSA solution (400 µg/ml) with 100 µl of a polystyrene latex which is the carrier (solid components 4.0 % by weight, particle size 0.8 µm, solvent PBS was shaken at 37 °C for 3 hours to have the MA-BSA carried physically on the polystyrene latex surface to obtain the "MA carrier".
The "MA carrier" prepared in Example 18 and the "antibody carrier " prepared in Example 19 were added dropwise each in 25 µl separately from each other onto the three sheets of reaction plates, and on the same plates were further added each 5 µl of the samples to be assayed with MA concentrations of 0.5 ppm and 1.0 ppm prepared by dilution with urine of healthy man (produced by HYLAND DIAGNOSTIC CO.) separately from each other, followed immediately by mixing of the "MA carrier", the "antibody carrier" and the sample to be assayed with a stirring stick.
In Example 20, samples to be assayed were prepared by use of methylephedrine (ME) in place of MA and the assay was carried out, following otherwise the same procedure.
In Example 20, samples to be assayed were prepared by use of ephedrine (EP) in place of MA and the assay was carried out, following otherwise the same procedure.

In test [5] the test system is "enzyme-labeled antibody" (peroxidase-labeled monoclonal antibody MA-15). Briefly: Reactivity of MA analogous compounds in the competitive enzyme immunoassay with MA bound protein and enzyme-labeled antibody (Example 15). As to the method: The antibody in the "enzyme-labeled antibody" was obtained as the purified monoclonal antibody as shown in Reference example 2 by use of the MA-15 strain (FERM-P 1496).
First, […] of horseradish peroxidase was dissolved in 1 ml of distilled water and 200 µl of 0.1 M sodium periodate was added, followed by standing at room temperature for 30 minutes. After the enzyme solution was dialyzed at 4 °C overnight against 1 mM acetate buffer (pH 4.5), 100 µl of 0.2 M sodium carbonate buffer (pH 9.5) was added to adjust pH to 9.5. On the other hand, 8 mg of the monoclonal antibody (MA-15) dissolved in PBS was dialyzed at 4 °C overnight against 0.01 M sodium carbonate buffer (pH 9.5). The peroxidase and the monoclonal antibody thus obtained was mixed, left to stand at room temperature for 2 hours and a half, and sodium borohydride was added to the reaction mixture, followed by standing at 4 °C for 2 hours. The peroxidase-labeled monoclonal antibody thus obtained was dialyzed at 4 °C overnight against PBS, and this was diluted to 100-fold with PBS containing 0.01 % sodium ethylmercurithiosalicylate, apportioned each in 0.2 ml into a bottle and stored under lyophilization to provide the "enzyme-labeled antibody" (10 µg/bottle) which is the assay kit of MA. During assay of MA, 0.2 ml of distilled water was added into the bottle to dissolve well the lyophilized powder, and the solution was suitable diluted with PBS before use.
The MA-BSA which is the "MA bound protein" (bound product of MA and BSA, 5 µg/ml) was apportioned each in 100 µl into a 96-well flat-bottomed plate for immunoassay which is the solid phase support (microplate made of polystyrene produced by Nunc Co.), and left to stand under 4 °C overnight to immobilize MA-BSA onto each well. Next, for preventing non-specific adsorption of the "enzyme-labeled antibody" onto the plate, a washing solution containing 10 % calf serum (phosphate buffer of pH 7.4 containing 0.05 % of Tween 20) was placed and left to stand under room temperature for 30 minutes. Next, after washing with the same washing solution, 50 µl of the standard MA solution prepared by using the diluted urine of healthy man (produced by HYLAND DIAGNOSTIC CO.) to 5-fold with the same washing solution [(0 to 150 ng)/50 µl] and 50 µl of the "enzyme-labeled antibody" prepared in Example 1 were added at the same time into each well, followed by mixing and standing under room temperature for 30 minutes. […] Finally, each 50 µl of 2N sulfuric acid was apportioned to stop the enzymatic reaction, and absorbance of the solution after stopping of the reaction at 492 nm was assayed by use of a microplate photometer. […]

Where [6] appears, read: monoclonal antibody MA-13, compound diluted at multiple stages, MA = 1.
Setting [7] is: monoclonal antibody MA-15, compound diluted at multiple stages, MA = 1.
[8] abbreviates: monoclonal antibody MA-7, compound diluted at multiple stages, MA = 1.
Setting [9] is: concentration in sample 0.5 ppm.
Setting [10] is: concentration in sample 1.0 ppm.
Where [11] appears, read: enzyme-labeled antibody, according to Example 6, MA = 100.

Structures are written as SMILES. Like-named read-outs stand apart in the source and are kept apart here.

Turning to `c1ccc(CNCCNCc2ccccc2)cc1` [DBED, N,N′-dibenzylethylenediamine], the “reactive ratios relative to MA” value in test [1] (setting [6]) came out at 0.23; in test [2] (setting [7]) it was 0.0055; in test [3] (setting [8]), 0.17.
For `CN[C@@H](C)[C@H](O)c1ccccc1` [EP, ephedrin], the “reactive ratios relative to MA” value in test [1] (setting [6]) was determined as 0.0025; in test [2] (setting [7]), 0.0012; in test [3] (setting [8]) it was 0.0018. Further, the “time until particles of polystyrene latex were observed with naked eyes to be agglutinated” value in test [4] (setting [9]) and in test [4] (setting [10]) was at most 30 s throughout.
Consider `CNC(C)C(O)c1ccc(O)cc1` (centres unmarked) [OH-EP, p-hydroxyephedrine], for which the “reactive ratios relative to MA” value is listed as below 0.001 in test [1] (setting [6]); below 0.001 in test [1] (monoclonal antibody MA-13, compound diluted at multiple stages, MA = 1, listed as p-hydroxephedrine); 0.0031 in test [2] (setting [7]); below 0.001 in test [3] (setting [8]); below 0.001 in test [3] (monoclonal antibody MA-7, compound diluted at multiple stages, MA = 1, listed as p-hydroxyephedrine).
On to `CC(N)Cc1ccccc1` (centres unmarked) [AP, amphetamine], for which the “reactive ratios relative to MA” value in test [1] turned out to be 0.0062; in test [2], 0.019; in test [3], 0.0051. Also, the “Reactivity (%)” value in test [5] is 1.8%.
For `CNC(C)Cc1ccc(O)cc1` (centres unmarked) [OH-MA, p-hydroxymethamphetamine], the “reactive ratios relative to MA” value came out at 0.14 in test [1] (setting [6]), 0.014 in test [2] (setting [7]) and 0.0039 in test [3] (setting [8]).
For `CC([C@H](O)c1ccccc1)N(C)C` (some centres unmarked) [ME, methylephedrin], the “reactive ratios relative to MA” value in test [1] (setting [6]) is reported as 0.028; in test [2] (setting [7]) it was 0.016; in test [3] (setting [8]) it was 0.022. Further, the “Reactivity (%)” value in test [5] (setting [11]) came out at 1.2%. For the same molecule, the “time until particles of polystyrene latex were observed with naked eyes to be agglutinated” value in test [4] (setting [9]) and in test [4] (setting [10]) was at most 30 s each time.
As to `CNC(C)Cc1ccccc1OC` (centres unmarked) [MPA, methoxyphenamine], the “reactive ratios relative to MA” value came to 0.0037 in test [1] (setting [6]), 0.0016 in test [2] (setting [7]) and 0.023 in test [3] (setting [8]). Besides, in test [5] (setting [11]), the “Reactivity (%)” value is below 0.2%.
With `CC(C)(N)Cc1ccccc1` [PT, phentermine], the “reactive ratios relative to MA” value in test [1] (setting [6]) is reported as 0.12; in test [2] (setting [7]) it was 0.0039; in test [3] (setting [8]), 0.042.
Take `CC(N)Cc1ccc(O)cc1` (centres unmarked) [OH-AP, p-hydroxyamphetamine]: the “reactive ratios relative to MA” value in test [1] (setting [6]) is on record as 0.003; in test [2] (setting [7]), below 0.001; in test [2] (monoclonal antibody MA-15, compound diluted at multiple stages, MA = 1, listed as p-hydroxyamphetamine) it was below 0.001; in test [3] (setting [8]), below 0.001; in test [3] (monoclonal antibody MA-7, compound diluted at multiple stages, MA = 1, listed as p-hydroxyamphetamine), below 0.001.
As for `CC(N)C(O)c1ccc(O)cc1` (centres unmarked) [OH-norEP, p-hydroxynorephedrin], the “reactive ratios relative to MA” value in test [1] (setting [6]) is below 0.001; in test [1] (monoclonal antibody MA-13, compound diluted at multiple stages, MA = 1, listed as p-hydroxynorephedrine), below 0.001; in test [2] (setting [7]), below 0.001; in test [2] (monoclonal antibody MA-15, compound diluted at multiple stages, MA = 1, listed as p-hydroxynorephedrine) it was below 0.001; in test [3] (setting [8]) it was below 0.001; in test [3] (monoclonal antibody MA-7, compound diluted at multiple stages, MA = 1, listed as p-hydroxynorephedrine), below 0.001.
On to `CC(N)C(O)c1ccccc1` (centres unmarked) [norEP, norephedrin], for which the “reactive ratios relative to MA” value in test [1] (setting [6]) is reported as below 0.001; in test [1] (monoclonal antibody MA-13, compound diluted at multiple stages, MA = 1, listed as norephedrine), below 0.001; in test [2] (setting [7]) it was below 0.001; in test [2] (monoclonal antibody MA-15, compound diluted at multiple stages, MA = 1, listed as norephedrine), below 0.001; in test [3] (setting [8]) it was below 0.001; in test [3] (monoclonal antibody MA-7, compound diluted at multiple stages, MA = 1, listed as norephedrine), below 0.001.
As for `COc1cc(CCN)cc(OC)c1OC` [Mes, mescaline], the “reactive ratios relative to MA” value in test [1] and in test [3] was below 0.00001 throughout.
For the molecule `CN[C@@H](C)Cc1ccccc1` [MA, methamphetamine], the “reactive ratios relative to MA” value in test [1] (setting [6]), in test [2] (setting [7]) and in test [3] (setting [8]) was 1 in each case. Further, the “Reactivity (%)” value in test [5] (setting [11]) worked out at 100%.
